We go through 3 molecules from patent US7691875B2, “Imidazopyridine compounds, processes for their preparation and therapeutic uses thereof” (AstraZeneca AB, priority 2003, dated 2010).

Series [1] in a line: Solubility in Fasted State Simulated Intestinal Fluid (FaSSIF). Type of series: physicochemical. Particulars: thermodynamic from solid, FaSSIF pH 6.5, 37° C., measured after 24 hours. As for the experimental part: Solubility in Fasted State Simulated Intestinal Fluid (FaSSIF)
The method describes a procedure to measure solubility of solid material in PaSSIF (Fasted State Simulated Intestinal Fluid). The FaSSIF solution is an isotonic phosphate buffer where pH is adjusted to 6.5 to reflect pH in the jejunum. Taurocholic acid and lecithin is added to a concentration of 3 mmol/l and 0.75 mmol/l respectively.
1 mg of solid material, i.e. of the compound of invention, is added to 1 ml FaSSIF solution and equilibrated at 37° C. Samples are withdrawn after 1 and 24 hours. The samples are transferred to eppendorf tubes and spun at 10000 G and 37° C. for 10 minutes. A suitable volume of the supernatant is removed and diluted to a suitable concentration. The concentrations of the compounds in the samples are analysed with LC/UV/MS.

The nature of series [2]: Bioavailability in the conscious dog. Particulars: plasma. Type of series: in vivo. As for the experimental part: Bioavailabiity is assessed by calculating the quotient between the area under blood/plasma concentration (AUC) curve following (i) intraduodenal (i.d.) or oral (p.o.) administration and (ii) intravenous (i.v.) administration from the rat or the dog, respectively.
The area under the blood concentration vs. time curve, AUC, is determined by the log/linear trapezoidal rule and extrapolated to infinity by dividing the last determined blood concentration by the elimination rate constant in the terminal phase. The systemic bioavailability (F%) following intraduodenal or oral administration is calculated as F(%)=(AUC (p.o. or i.d.)/AUC (i.v.))×100.
(§1) Inhibition of Gastric Acid Secretion and Bioavailability in the Conscious Dog.
Blood samples for the analysis of test compound concentration in plasma are taken at intervals up to 4 h after dosing. Plasma is separated and frozen within 30 min after collection and later analyzed. The systemic bioavailability (F%) after oral or i.d. administration is calculated as described above in the rat model.

Series [3] concerns isolated rabbit gastric glands. Nature of the series: Acid secretion inhibition in isolated rabbit gastric glands. Particulars: Oryctolagus cuniculus, in vitro. The format is cell-based. As for the experimental part:
Acid Secretion Inhibition in Isolated Rabbit Gastric Glands
Inhibiting effect on acid secretion in vitro in isolated rabbit gastric glands was measured as
described by Berglindh et al. (1976) Acta Physiol. Scand. 97, 401-414.

The target of a further series is H+,K+-ATPase (Homo sapiens, UniProt P20648). Put plainly: Determination of H+,K+-ATPase activity (membrane vesicles, phosphate release). The format is biochemical. Particulars: 15 min, 37° C., pH 7.4, 10 mM KCl, 2 mM ATP. As to the method: Detennination of H^+,K^+-ATPase Activity
H+,K+-ATPase, sequence (P20648 whole entry): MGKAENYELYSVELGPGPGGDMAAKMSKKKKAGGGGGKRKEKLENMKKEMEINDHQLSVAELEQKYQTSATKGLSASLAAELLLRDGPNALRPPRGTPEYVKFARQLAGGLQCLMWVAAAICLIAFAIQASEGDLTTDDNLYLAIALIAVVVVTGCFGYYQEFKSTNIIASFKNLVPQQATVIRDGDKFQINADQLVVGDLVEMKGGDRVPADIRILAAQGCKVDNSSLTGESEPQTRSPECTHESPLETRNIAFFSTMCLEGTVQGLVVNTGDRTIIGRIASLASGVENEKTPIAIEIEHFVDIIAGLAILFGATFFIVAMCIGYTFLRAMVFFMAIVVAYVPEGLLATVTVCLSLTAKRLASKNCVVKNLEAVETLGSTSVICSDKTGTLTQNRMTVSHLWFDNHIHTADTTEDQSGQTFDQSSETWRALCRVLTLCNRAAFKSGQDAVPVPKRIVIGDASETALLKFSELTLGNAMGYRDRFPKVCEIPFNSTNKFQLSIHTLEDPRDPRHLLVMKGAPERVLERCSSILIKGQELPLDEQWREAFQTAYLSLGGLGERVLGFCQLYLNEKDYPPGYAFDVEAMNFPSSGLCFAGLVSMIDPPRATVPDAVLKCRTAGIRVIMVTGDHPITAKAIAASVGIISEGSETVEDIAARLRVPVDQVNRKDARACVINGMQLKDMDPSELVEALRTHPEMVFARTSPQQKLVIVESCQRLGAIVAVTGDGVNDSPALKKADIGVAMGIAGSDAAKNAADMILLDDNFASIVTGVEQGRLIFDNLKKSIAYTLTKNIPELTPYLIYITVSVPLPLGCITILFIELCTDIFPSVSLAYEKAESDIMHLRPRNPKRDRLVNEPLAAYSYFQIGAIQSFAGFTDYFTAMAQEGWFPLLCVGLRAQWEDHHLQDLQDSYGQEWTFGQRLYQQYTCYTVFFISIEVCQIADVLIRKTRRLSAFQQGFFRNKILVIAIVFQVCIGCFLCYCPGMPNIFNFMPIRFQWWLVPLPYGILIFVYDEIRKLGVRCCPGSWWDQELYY
H+,K+-ATPase, sequence (P51164 whole entry partner): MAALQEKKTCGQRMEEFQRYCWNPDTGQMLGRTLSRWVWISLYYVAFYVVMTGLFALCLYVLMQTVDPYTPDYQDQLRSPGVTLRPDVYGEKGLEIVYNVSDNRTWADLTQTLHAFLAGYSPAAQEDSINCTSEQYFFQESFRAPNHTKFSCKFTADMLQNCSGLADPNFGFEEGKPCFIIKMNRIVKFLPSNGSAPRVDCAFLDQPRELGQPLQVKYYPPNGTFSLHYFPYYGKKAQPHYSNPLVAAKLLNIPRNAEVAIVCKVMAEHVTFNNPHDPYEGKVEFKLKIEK
Membrane vesicles (2.5 to 5 μg) were incubated for 15 min at +37° C. in 18 mM Pipes/Tris buffer pH 7.4 containing 2 mM MgCl2, 10 mM KCl and 2 mM ATP. The ATPase activity was estimated as release of inorganic phosphate from ATP, as described by LeBel et al. (1978) Anal. Biochem. 85, 86-89.

Series [4] deals with histamine-stimulated acid secretion. Put plainly: Inhibition of histamine-stimulated gastric acid secretion in the conscious Heidenhain pouch dog. Type of series: in vivo. Particulars: 1-3 hours after dosing, mean n=2. As to the method: as §1
Labrador retriever or Harrier dogs of either sex are used. They are equipped with a duodenal fistula for the administration of test compounds or vehicle and a cannulated gastric fistula or a Heidenhaim-pouch for the collection of gastric secretion.
Before secretory tests the animals are fasted for about 18 h but water is freely allowed. Gastric acid secretion is stimulated for up to 6.5 h infusion of histamine dihydrochloride (12 ml/h) at a dose producing about 80 % of the individual maximal secretory response, and gastric juice collected in consecutive 30-min fractions. Test substance or vehicle is given orally, i.d. or i.v., 1 or 1.5 h after starting the histamine infusion, in a volume of 0.5 ml/kg body weight. In the case of oral administration, it should be pointed out that the test compound is administered to the acid secreting main stomach of the Heidenham-pouch dog.
The acidity of the gastric juice samples are determined by titration to pH 7.0, and the acid output calculated. The acid output in the collection periods after administration of test substance or vehicle are expressed as fractional responses, setting the acid output in the fraction preceding administration to 1.0. Percentage inhibition is calculated from fractional responses elicited by test compound and vehicle.

≈ marks a conversion by molar mass, not a printed value.

In series [1], `CS(=O)(=O)O.Cc1cccc(C)c1CNc1cc(C(=O)NC[C@H](C)O)cn2c(C)c(C)nc12` [8-[(2,6-dimethylbenyl)amino]-N-[(2S)-2-hydroxypropyl]-2,3-dimethylimidazo[1,2-a]pyridine-6-carboxamide mesylate salt] showed a solubility at 24 h of 218 µM.

Turning to `Cc1cccc(C)c1CNc1cc(C(=O)NCCO)cn2c(C)c(C)nc12` [8-[(2,6-dimethylbenzyl)amino]-N-(2-hydroxyethyl)-2,3-dimethylimidazo[1,2-a]pyridine-6-carboxamide, reference compound], the bioavailability in series [2] amounted to 61%. The values for the IC50 (in series [3]; at H+,K+-ATPase) were 280 nM and 750 nM, respectively.

As to `Cc1cccc(C)c1CNc1cc(C(=O)NC[C@H](C)O)cn2c(C)c(C)nc12` [compound of the invention, 8-[(2,6-dimethylbenzyl)amino]-N-[(2S)-2-hydroxypropyl]-2,3-dimethylimidazo[1,2-a]pyridine-6-carboxamide], the “mean percentage inhibition of histamine-stimulated acid secretion” value in series [4] stood at 91%. The IC50 is 260 nM in series [3] and 690 nM against H+,K+-ATPase. The concentration in solution in series [1] (solubility at 24 h) was 48 µM (≈ 18.3 µg/mL).

For orientation: solubility means how much of the substance goes into solution per volume. One may read the bioavailability as dose-corrected exposure relative to a reference, in per cent. A higher bioavailability goes with much systemic uptake. As usually defined, the IC50 is the concentration at which inhibition is half-maximal. Low readings indicate higher potency, high ones lower potency.
